Like-named read-outs stand apart in the source and are kept apart here.
Columns and labels:
[1] = Molar extinction coefficients; type: physicochemical
[2] = system: live and dead bacteria (E. Coli); assay: Flow cytometry of live versus dead cells labelled with 6-TramTO-1; type: cell-based; conditions: 5 μM dye for 5 min
Experimental: The flow cytometric measurements are performed by use of the LSR Fortessa cell analyser (BD Biosciences, USA) or other commercially available apparatuses (e.g. FACSAria III (BD Biosciences, USA) and Guava easyCyte (Merck Millipore, USA)). […] A minimum of 10000 events per sample is analysed. The measurements are each performed in at least two independent experiments. Bacteria are labelled for 15 min with 5 μM of the corresponding dyes. […] For 6-TramTO-1 (1) one can see clear labelling when 5 μM of the dye are added for only 5 min before the measurements, dead cells (treated with 70% isopropanol for 1 h, then washed with saline 3×) being labelled about 10× stronger: MFI 135 vs 1337. FIGS. 5A-5C show additional data. […] FIG. 5B: The graphs of FIG. 5B show flow cytometric data of mixtures of dead and live E. Coli treated with left graph: PI (20 μM) and right graph: 6-TramTO-1 (1, 5 μM) for 5 min showing that the TramTO and PI give the same results. • The parameter settings regarding excitation/emission (as far as they are applied) are equivalent to those described within the legend of FIG. 5A.

dsDNA [3] = assay: Fluorescence titrations (affinity towards dsDNA); type: binding; conditions: for Kd: affinity towards dsDNA; for RFU + DNA: with DNA; for RFU − DNA: without DNA; for RFU for slits 5/5: value given in Slits column for slits 5/5 nm instead of 10/10
Experimental: The affinity of the TramTO derivatives towards dsDNA is usually higher than the affinity of the derivatives without the modified side chain according to this invention. […] KD values are determined as is well known to any person being of ordinary skill in the art.

dsDNA [4] = conditions: affinity towards dsDNA; read-out: KD (literature value); cited from earlier work
HeLa cells = assay: Viability of HeLa cells, resazurin fluorescence-based cell viability assay; conditions: dye concentration of 10 μM
[5] = solvent DMSO; cited from earlier work

Row | Compound | Molar extinction coefficient ([1]; solvent H2O) [M⁻¹ cm⁻¹] | Kd (dsDNA [3]) [µM] | RFU + DNA (dsDNA [3]; slits 5/5 nm) [RFU] | RFU − DNA (dsDNA [3]; slits 5/5 nm) [RFU] | RFU for slits 5/5 (dsDNA [3]) [RFU)] | RFU + DNA (dsDNA [3]; slits 10/10 nm) [RFU] | RFU − DNA (dsDNA [3]; slits 10/10 nm) [RFU] | other results
1 | CC[n+]1ccc(/C=C2\Sc3ccccc3N2CCCCCCn2cc(CN)nn2)c2ccccc21 [6-TramTO-1 (1), (Z)-4-((3-(6-(4-(ammoniomethyl)-1H-1,2,3-triazol-1-yl)hexyl)benzo[d]thiazol-2(3H)-ylidene)methyl)-1-ethylquinolin-1-ium] | 61813 | 8.63 ± 4.34 | 460 | 1.2 | – | – | – | labelling of dead cells stronger than live cells [2]: about 10 ×; MFI ([2]; dead cells (70% isopropanol for 1 h)): 1337; MFI ([2]; live cells): 135; affinity towards dsDNA, superior to 6-TramTAS (dsDNA [3]; ratio versus 6-TramTAS): ~3 ×; affinity towards dsDNA, superior to 6-TramTO-3 (dsDNA [3]; ratio versus 6-TramTO-3): ~2 ×
2 | CC[n+]1ccc(/C=C2\Sc3ccccc3N2C)c2ccccc21 [CH3TO-3 (6), (Z)-1-ethyl-4-((3-methylbenzo[d]thiazol-2(3H)-ylidene)methyl)quinolin-1-ium, reference compound] | – | 45 ± 1.05 | 210 | 6.8 | – | – | – | Molar extinction coefficient ([1]; solvent DMSO): 37153 M⁻¹ cm⁻¹
3 | CC[n+]1ccc(/C=C/C=C2\Sc3ccccc3N2CCCCCCn2cc(CN)nn2)c2ccccc21.[I-] [6-TramTO-3 (3)] | 59403 | 23 ± 1.81 | 280 | 11.8 | – | – | – | Kd (dsDNA [4]): 19.5 ± 2.6 µM; viability of HeLa cells compared to reference (HeLa cells): about 97%
4 | CN(C)c1ccc(/C=C/c2sc3ccccc3[n+]2CCCCCCn2cc(CN)nn2)cc1 [6-TramTAS (2), (E)-3-(6-(4-(aminomethyl)-1H-1,2,3-triazol-1-yl)hexyl)-2-(4-(dimethylamino)styryl)benzo[d]thiazol-3-ium] | – | – | – | – | ~8 | 90 | 2.9 | Molar extinction coefficient ([1]; solvent MeCN): 70463 M⁻¹ cm⁻¹
5 | CC[n+]1ccc(/C=C2\Sc3ccccc3N2C)c2ccccc21 [CH3TO-1 (4), (Z)-1-ethyl-4-((3-methylbenzo[d]thiazol-2(3H)-ylidene)methyl)quinolin-1-ium, reference compound] | – | 20.6 ± 6.67 | – | – | ~10 | 125 | 0.2 | Molar extinction coefficient (lit.) [5]: lit. 63000 M^−1cm^−1
